{"source": "ChEMBL document CHEMBL5113432", "about": "“Discovery of novel indole and indoline derivatives against Candida albicans as potent antifungal agents” (Bioorg Med Chem Lett, 2022)", "key": {"Candida albicans [1]": {"tested_on": "Candida albicans", "experiment": "Antifungal activity against fluconazole-resistant Candida albicans ATCC10231FR assessed as inhibition of fungal growth by microdilution method", "format": "functional, organism-based"}, "Candida albicans [2]": {"tested_on": "Candida albicans", "experiment": "Antifungal activity against Candida albicans assessed as inhibition of hyphae formation in Spider medium at 18 to 72 ug/ml and measured for 4 to 8 hrs by scanning electron microscopy", "format": "functional, organism-based", "settings": "dose 18-72 µg/ml, time 4-8 hrs, TDE = time-dependent effect"}, "Candida albicans [3]": {"tested_on": "Candida albicans", "experiment": "Antifungal activity against Candida albicans assessed as downregulation of HWP1 by RT-PCR analysis", "format": "functional, organism-based"}, "Candida albicans [4]": {"tested_on": "Candida albicans", "experiment": "Antifungal activity against fluconazole-sensitive Candida albicans SC5314 assessed as inhibition of fungal growth by microdilution method", "format": "functional, organism-based"}, "Candida albicans [5]": {"tested_on": "Candida albicans", "experiment": "Antifungal activity against fluconazole-sensitive Candida albicans ATCC10231 assessed as inhibition of fungal growth by microdilution method", "format": "functional, organism-based"}, "Candida albicans [6]": {"tested_on": "Candida albicans", "experiment": "Antifungal activity against Candida albicans assessed as downregulation of ALS3 by RT-PCR analysis", "format": "functional, organism-based"}, "Candida albicans [7]": {"tested_on": "Candida albicans", "experiment": "Antifungal activity against Candida albicans assessed as downregulation of RAS1 by RT-PCR analysis", "format": "functional, organism-based"}, "Candida albicans [8]": {"tested_on": "Candida albicans", "experiment": "Antifungal activity against Candida albicans assessed as downregulation of CYR1 by RT-PCR analysis", "format": "functional, organism-based"}, "Candida albicans [9]": {"tested_on": "Candida albicans", "experiment": "Antifungal activity against clinical strain Candida albicans CA4574 assessed as inhibition of fungal growth by microdilution method", "format": "functional, organism-based"}, "Candida albicans [10]": {"tested_on": "Candida albicans", "experiment": "Antifungal activity against clinical strain Candida albicans CA23 assessed as inhibition of fungal growth by microdilution method", "format": "functional, organism-based"}, "[11]": {"experiment": "Cytotoxicity against human 16HBE14o- assessed as inhibition of cell growth incubated for 24 hrs", "format": "toxicity, cell-based", "settings": "16HBE14o- cells"}, "Candida albicans [12]": {"tested_on": "Candida albicans", "experiment": "Antifungal activity against Candida albicans assessed as inhibition of fungal growth at 18 to 72 ug/ml and measured upto 96 hrs by microdilution method", "format": "functional, organism-based", "settings": "dose 18-72 µg/ml, DDE = dose-dependent effect"}, "Candida albicans [13]": {"tested_on": "Candida albicans", "experiment": "Antifungal activity against Candida albicans assessed as inhibition of biofilm formation at 18 to 72 ug/ml incubated for 24 hrs by crystal violet staining based method", "format": "functional, organism-based", "settings": "dose 18-72 µg/ml"}, "Candida albicans [14]": {"tested_on": "Candida albicans", "experiment": "Antifungal activity against fluconazole-resistant Candida albicans SC5314FR assessed as inhibition of fungal growth by microdilution method", "format": "functional, organism-based"}, "Candida albicans [15]": {"tested_on": "Candida albicans", "experiment": "Antifungal activity against clinical strain Candida albicans CA187 assessed as inhibition of fungal growth by microdilution method", "format": "functional, organism-based"}, "Candida albicans [16]": {"tested_on": "Candida albicans", "experiment": "Antifungal activity against Candida albicans assessed as downregulation of ECE1 by RT-PCR analysis", "format": "functional, organism-based"}, "Candida albicans [17]": {"tested_on": "Candida albicans", "experiment": "Antifungal activity against Candida albicans assessed as decrease in filamentous hyphae length in Spider medium at 36 to 72 ug/ml by scanning electron microscopy", "format": "functional, organism-based", "settings": "dose 36-72 µg/ml"}, "Candida albicans [18]": {"tested_on": "Candida albicans", "experiment": "Antifungal activity against Candida albicans assessed as downregulation of EFG1 by RT-PCR analysis", "format": "functional, organism-based"}, "Candida albicans [19]": {"tested_on": "Candida albicans", "experiment": "Antifungal activity against clinical strain Candida albicans CA808 assessed as inhibition of fungal growth by microdilution method", "format": "functional, organism-based"}, "Candida albicans [20]": {"tested_on": "Candida albicans", "experiment": "Antifungal activity against Candida albicans assessed as inhibition of hyphae formation in Spider medium at 18 to 72 ug/ml and measured upto 8 hrs by scanning electron microscopy", "format": "functional, organism-based", "settings": "dose 18-72 µg/ml, DDE = dose-dependent effect"}, "Candida albicans [21]": {"tested_on": "Candida albicans", "experiment": "Antifungal activity against Candida albicans assessed as inhibition of fungal growth at 18 to 72 ug/ml and measured 4 to 96 hrs by microdilution method", "format": "functional, organism-based", "settings": "dose 18-72 µg/ml, time 4-96 hrs, TDE = time-dependent effect"}}, "note": "Active and inactive are the calls of the source. The rule behind the calls is not given here.", "data": [{"smiles": "O=C(CCn1ccc2ccccc21)NCCNS(=O)(=O)c1ccc(F)c(C(F)(F)F)c1", "values": [{"measurement": "IC50", "setting": "Candida albicans [1]", "result": "> 200", "unit": "µg/mL"}]}, {"smiles": "CCN(CC)c1ccc(S(=O)(=O)NCCNC(=O)CCn2ccc3ccccc32)c(O)c1", "values": [{"measurement": "IC50", "setting": "Candida albicans [1]", "result": "> 200", "unit": "µg/mL"}]}, {"smiles": "CCN(CC)c1ccc(/C=N/CCNC(=O)CCn2ccc3ccccc32)c(O)c1", "values": [{"measurement": "inhibition", "setting": "Candida albicans [2]", "result": "Tde"}, {"measurement": "Activity", "setting": "Candida albicans [3]", "result": "Active"}, {"measurement": "IC50", "setting": "Candida albicans [4]", "result": 22, "unit": "µg/mL"}, {"measurement": "IC50", "setting": "Candida albicans [5]", "result": 19, "unit": "µg/mL"}, {"measurement": "Activity", "setting": "Candida albicans [6]", "result": "Active"}, {"measurement": "Activity", "setting": "Candida albicans [7]", "result": "Active"}, {"measurement": "Activity", "setting": "Candida albicans [8]", "result": "Active"}, {"measurement": "IC50", "setting": "Candida albicans [9]", "result": 74, "unit": "µg/mL"}, {"measurement": "IC50", "setting": "Candida albicans [10]", "result": 20, "unit": "µg/mL"}, {"measurement": "CC50 at 24 h", "setting": "[11]", "result": "> 200", "unit": "µg/mL"}, {"measurement": "inhibition", "setting": "Candida albicans [12]", "result": "Dde"}, {"measurement": "inhibition", "setting": "Candida albicans [13]", "result": "Active"}, {"measurement": "IC50", "setting": "Candida albicans [14]", "result": 75, "unit": "µg/mL"}, {"measurement": "IC50", "setting": "Candida albicans [15]", "result": 39, "unit": "µg/mL"}, {"measurement": "Activity", "setting": "Candida albicans [16]", "result": "Active"}, {"measurement": "Activity", "setting": "Candida albicans [17]", "result": "Active"}, {"measurement": "Activity", "setting": "Candida albicans [18]", "result": "Active"}, {"measurement": "IC50", "setting": "Candida albicans [19]", "result": 78, "unit": "µg/mL"}, {"measurement": "inhibition", "setting": "Candida albicans [20]", "result": "Dde"}, {"measurement": "IC50", "setting": "Candida albicans [1]", "result": 21, "unit": "µg/mL"}, {"measurement": "inhibition", "setting": "Candida albicans [21]", "result": "Tde"}]}, {"smiles": "O=C(CCn1ccc2ccccc21)NCCNS(=O)(=O)c1cc([N+](=O)[O-])ccc1O", "values": [{"measurement": "IC50", "setting": "Candida albicans [1]", "result": "> 200", "unit": "µg/mL"}]}, {"smiles": "O=C(CCn1ccc2ccccc21)NCCNS(=O)(=O)c1cc(Cl)cc(Br)c1O", "values": [{"measurement": "IC50", "setting": "Candida albicans [1]", "result": "> 200", "unit": "µg/mL"}]}, {"smiles": "O=C(CCn1ccc2ccccc21)NCCNS(=O)(=O)c1ccc(OCc2ccccc2)cc1O", "values": [{"measurement": "IC50", "setting": "Candida albicans [1]", "result": "> 200", "unit": "µg/mL"}]}, {"smiles": "COc1cc(O)c(/C=N/CCNC(=O)CCn2ccc3ccccc32)c(OC)c1", "values": [{"measurement": "IC50", "setting": "Candida albicans [1]", "result": 86, "unit": "µg/mL"}]}, {"smiles": "Cc1ccc(S(=O)(=O)NCCNC(=O)CCn2ccc3ccccc32)cc1", "values": [{"measurement": "IC50", "setting": "Candida albicans [1]", "result": "> 200", "unit": "µg/mL"}]}, {"smiles": "O=C(CCn1ccc2ccccc21)NCC/N=C/c1ccc(OC(F)(F)F)cc1", "values": [{"measurement": "IC50", "setting": "Candida albicans [1]", "result": 29, "unit": "µg/mL"}]}, {"smiles": "O=C(CCn1ccc2ccccc21)NCC/N=C/c1ccc(Br)cc1", "values": [{"measurement": "IC50", "setting": "Candida albicans [1]", "result": "> 200", "unit": "µg/mL"}]}, {"smiles": "COc1ccc(O)c(/C=N/CCNC(=O)CCn2ccc3ccccc32)c1", "values": [{"measurement": "IC50", "setting": "Candida albicans [1]", "result": "> 200", "unit": "µg/mL"}]}, {"smiles": "O=C(CCn1ccc2ccccc21)NCC/N=C/c1ccc(F)c(C(F)(F)F)c1", "values": [{"measurement": "IC50", "setting": "Candida albicans [1]", "result": "> 200", "unit": "µg/mL"}]}, {"smiles": "O=C(CCn1ccc2ccccc21)NCC/N=C/c1ccc(Cl)c(C(F)(F)F)c1", "values": [{"measurement": "IC50", "setting": "Candida albicans [1]", "result": 24, "unit": "µg/mL"}]}, {"smiles": "OC(Cn1cncn1)(Cn1cncn1)c1ccc(F)cc1F", "note": "[FLUCONAZOLE]", "values": [{"measurement": "IC50", "setting": "Candida albicans [4]", "result": 1.3, "unit": "µg/mL"}, {"measurement": "IC50", "setting": "Candida albicans [5]", "result": 10, "unit": "µg/mL"}, {"measurement": "IC50", "setting": "Candida albicans [9]", "result": 1.2, "unit": "µg/mL"}, {"measurement": "IC50", "setting": "Candida albicans [10]", "result": "> 200", "unit": "µg/mL"}, {"measurement": "IC50", "setting": "Candida albicans [14]", "result": "> 200", "unit": "µg/mL"}, {"measurement": "IC50", "setting": "Candida albicans [15]", "result": "> 200", "unit": "µg/mL"}, {"measurement": "IC50", "setting": "Candida albicans [19]", "result": "> 200", "unit": "µg/mL"}, {"measurement": "IC50", "setting": "Candida albicans [1]", "result": "> 200", "unit": "µg/mL"}]}, {"smiles": "O=C(CCn1ccc2ccccc21)NCCNS(=O)(=O)c1cc(Br)ccc1O", "values": [{"measurement": "IC50", "setting": "Candida albicans [1]", "result": "> 200", "unit": "µg/mL"}]}, {"smiles": "O=C(CCn1ccc2ccccc21)NCC/N=C/c1cc(Cl)c(F)cc1F", "values": [{"measurement": "IC50", "setting": "Candida albicans [1]", "result": "> 200", "unit": "µg/mL"}]}, {"smiles": "O=C(CCn1ccc2ccccc21)NCCNS(=O)(=O)c1ccc(Br)cc1", "values": [{"measurement": "IC50", "setting": "Candida albicans [1]", "result": "> 200", "unit": "µg/mL"}]}, {"smiles": "O=C(CCn1ccc2ccccc21)NCCNS(=O)(=O)c1cc(Cl)c(F)cc1F", "values": [{"measurement": "IC50", "setting": "Candida albicans [1]", "result": "> 200", "unit": "µg/mL"}]}, {"smiles": "O=C(CCn1ccc2ccccc21)NCCNS(=O)(=O)c1ccc(OC(F)(F)F)cc1", "values": [{"measurement": "IC50", "setting": "Candida albicans [1]", "result": "> 200", "unit": "µg/mL"}]}, {"smiles": "O=C(CCn1ccc2ccccc21)NCC/N=C/c1ccc(OCc2ccccc2)cc1O", "values": [{"measurement": "IC50", "setting": "Candida albicans [1]", "result": 18, "unit": "µg/mL"}]}]}
